The results in this text go back to US20250380697A1, “ISOXAZOLINE DERIVATIVE COMPOUND AND INSECTICIDAL COMPOSITION COMPRISING SAME” (KYUNG NONG CORPORATION, priority 2022, published 2025).

Each structure is given as a SMILES string. Where only a bound is given, the exact number is not on record here.

Format in all cases: in vivo
The subject of experiment [1] is Frankliniella occidentalis. Nature of the experiment: Pesticidal activity against Frankliniella occidentalis, spray method. The following applies: 48 h; for mortality at 100 ppm: read-out: mortality rate against Frankliniella occidentalis. The source says: A water-soaked filter paper (9.0 cm in diameter) was placed in an insect breeding dish (Lab Guide®) with a diameter of 9.0 cm and a height of 4.0 cm, and then parafilm (width 4.0 cm×height 4.0 cm) was placed thereon. Before treating with a pesticide composition, 10 adult Frankliniella occidentalis were inoculated per petri dish using a No. 4 brush. In this case, Frankliniella occidentalis adults used were those purchased from the Bio Utilization Institute (Andong, Korea). Then, each of the pesticide compositions prepared in Examples (a diluted solution in which each of the compounds of Synthesis Examples (concentration: 100 ppm) was diluted; the solvent=distilled water+acetone 50,000 mg/L+Triton X-100 100 mg/L) was loaded into a 100 mL small sprayer, and sprayed 10-12 times at a distance of 30 cm and a height of 50 cm, and one cotyledons of soybean, which is a host plant, were added one at a time. Then, the Frankliniella occidentalis adults were stored under the conditions of 16 hours of light and 8 hours of darkness, 25±1° C., and relative humidity of 50-60%, and the number of live Frankliniella occidentalis adults was counted 48 hours after the inoculation. Thereafter, the larvae mortality rate was calculated in the same manner as in Test Example 1 above.

The test system of experiment [2] is Phaedon brassicae. Nature of the experiment: Pesticidal activity against Phaedon brassicae, leaf-dipping method. The conditions noted are these: counted 24, 48, 72 hours, time not given, read-out: mortality rate, Phaedon brassicae. As to the method: Cabbage (Daiya) leaves were cut into pieces with a diameter of 5.8 cm, dipped in the pesticide composition where the compound of Synthesis Example 2 was diluted (the solvent=distilled water+acetone 50,000 mg/L+Triton X-100 100 mg/L) for 30 seconds, and sufficiently shade-dried. Then, the shade-dried cabbage leaves were is placed in a petri dish (8.8 cm in diameter) covered with filter paper and repeatedly inoculated 3-5 times with the larvae of Phaedon brassicae, 10 larvae per inoculation. In particular, the Phaedon brassicae larvae used were those which were bred in the Andong National University (Korea) for multiple generations.
After the inoculation, the Phaedon brassicae larvae were stored under the conditions of 16 hours of light and 8 hours of dark, 25±1° C. and 50-60% relative humidity, and the number of live Phaedon brassicae larvae was counted 24, 48, and 72 hours after the inoculation. Thereafter, the larvae mortality rate was calculated in the same manner as in Test Example 1 above.

Experiment [3] deals with Thrips tabaci Lindeman. Nature of the experiment: Pesticidal activity against Thrips tabaci Lindeman, spray method. The conditions noted are these: adults, counted 24 and 48 hours, time not given, read-out: mortality rate, Thrips tabaci Lindeman. The source says:
A water-soaked filter paper (9.0 cm in diameter) was placed in an insect breeding dish (Lab Guide®) with a diameter of 9.0 cm and a height of 4.0 cm, and then parafilm (width 4.0 cm×height 4.0 cm) was placed thereon. Before being treated with a pesticide composition, 10 adult Thrips tabaci Lindeman were inoculated per petri dish using a No. 4 brush. In this case, Thrips tabaci Lindeman adults used were those collected in a place near the Andong National University (Korea) and bred for multiple generations. Then, the pesticide composition where the compound of Synthesis Example 2 was diluted (the solvent=distilled water+acetone 50,000 mg/L+Triton X-100 100 mg/L) was loaded into a 100 mL small sprayer, and sprayed 10-12 times at a distance of 30 cm and a height of 50 cm, and one cotyledons of soybean, which is a host plant, were added one at a time. Then, the Thrips tabaci Lindeman adults were stored under the conditions of 16 hours of light and 8 hours of darkness, 25±1° C., and relative humidity of 50-60%, and the number of live Thrips tabaci Lindeman adults was counted 24, and 48 hours after the inoculation. Thereafter, the larvae mortality rate was calculated in the same manner as in Test Example 1 above.

The subject of experiment [4] is Spodoptera litura. The experiment in a line: Pesticidal activity against Spodoptera litura, leaf-dipping method. The conditions noted are these: 48 h, read-out: mortality rate against Spodoptera litura. As to the method:
Cabbage (Daiya) leaves were cut into pieces with a diameter of 5.8 cm, dipped in each of the pesticide compositions prepared in Examples (a 5% acetone solution in which each of the compounds of Synthesis Examples (concentration: 100 ppm) was diluted) for 30 seconds, and sufficiently shade-dried. Then, the shade-dried cabbage leaves were placed in a petri dish (8.8 cm in diameter) covered with a filter paper and repeatedly inoculated 3 times with the second instar larvae of Spodoptera litura, 10 larvae per inoculation. In this case, Spodoptera litura larvae used were those which were purchased from the Bio Utilization Institute (Andong, Korea). Then, the Spodoptera litura larvae were stored under the conditions of 16 hours of light and 8 hours of dark, 25±1° C., and relative humidity of 50-60%, and the number of live Spodoptera litura larvae was counted 48 hours after the inoculation. Thereafter, the larvae mortality rate was calculated in the same manner as in Test Example 1 above.

Experiment [5] has as its system Plutella xylostella. Nature of the experiment: Pesticidal activity against Plutella xylostella, leaf-dipping method. The conditions noted are these: 48 h, read-out: larvae mortality rate against Plutella xylostella. As to the method:
Cabbage (Daiya) leaves were cut into pieces with a diameter of 5.8 cm, dipped in each of the pesticide compositions prepared in Examples (a 5% acetone solution in which each of the compounds of Synthesis Examples (concentration: 100 ppm) was diluted) for 30 seconds, and sufficiently shade-dried. Then, the shade-dried cabbage leaves were placed in a petri dish (8.8 cm in diameter) covered with a filter paper and repeatedly inoculated 3 times with third instar larvae of Plutella xylostella, 10 larvae per inoculation. In particular, Plutella xylostella larvae used were those which were collected in a place near Gyeongju (Korea) in 2000 and bred in a breeding room for multiple generations. Then, the Plutella xylostella larvae were stored under the conditions of 16 hours of light and 8 hours of dark, 25±1° C., and relative humidity of 50-60%, and the number of live Plutella xylostella larvae was counted 48 hours after the inoculation. Thereafter, the larvae mortality rate was calculated by correcting the density after treatment based on the density before treatment, as shown in Equation 1 and Equation 2 below, and converting the same into the corrected mortality rate for untreated (Reference: A method of computing the effectiveness of an insecticide. J. Econ. Entomol. 18:265˜267. Abbott, 1925).

Setting [6] is: read-out: mortality rate, Frankliniella occidentalis.

Usually mortality stands for the share of the test organisms that died. `CCN1OC[C@@H](NC(=O)c2ccc(C3=NO[C@@](c4cc(Cl)c(F)c(Cl)c4)(C(F)(F)F)C3)cc2C)C1=O` [Comparative Example 3, isocycloseram]: the mortality at 5 ppm in experiment [1] (setting [6]) stood at 100%. Besides, the mortality at 10 ppm in experiment [1] (setting [6]) was determined as 100%; in experiment [2] (10 ppm), 100%; in experiment [3] (10 ppm), 90%. Also, the mortality at 1 ppm in experiment [2] (1 ppm) turned out to be 100%; in experiment [3] (1 ppm) it was 66%. Besides, the mortality at 3 ppm is 100% in experiment [2] (3 ppm) and 76% in experiment [3] (3 ppm).
On to `Cc1cc(C2=NOC(c3cc(Cl)cc(Cl)c3)(C(F)(F)F)C2)ccc1C(=O)NC(=O)c1ccno1` (centres unmarked) [Synthesis Example 81], for which the mortality at 100 ppm in experiment [4], in experiment [1] and in experiment [5] was not below 80% each time.
`Cc1cc(C(=O)NC(=O)c2ccc(C3=NOC(c4cc(Cl)cc(C(F)(F)F)c4)(C(F)(F)F)C3)cc2C)no1` (centres unmarked) [Synthesis Example 82]: the mortality at 100 ppm in experiment [4], in experiment [1] and in experiment [5] was not below 80% each time.
As for `Cc1cc(C2=NOC(c3cc(Cl)cc(C(F)(F)F)c3)(C(F)(F)F)C2)ccc1C(=O)NC(=O)c1ccno1` (centres unmarked) [Synthesis Example 83], the mortality at 100 ppm in experiment [4], in experiment [1] and in experiment [5] was not below 80% each time.
In the case of `Cc1cc(C2=NOC(c3cc(Cl)cc(C(F)(F)F)c3)(C(F)(F)F)C2)ccc1C(=O)NC(=O)c1cc(C2CC2)on1` (centres unmarked) [Synthesis Example 84], the mortality at 100 ppm in experiment [4], in experiment [1] and in experiment [5] was not below 80% in each case.
Regarding `Cc1cc(C2=NOC(c3cc(Cl)cc(C(F)(F)F)c3)(C(F)(F)F)C2)ccc1C(=O)NC(=O)C1CCCO1` (centres unmarked) [Synthesis Example 85], the mortality at 100 ppm in experiment [4], in experiment [1] and in experiment [5] was not below 80% in each case.
